Key:
[1] = LogP (1-octanol/water partition coefficient) determined using HPLC; type: physicochemical; settings: HPLC; tentative value: hydrophobicity beyond the range of the reference compounds (1.9 < LogP < 6.5)
Protocol: Hydrophobicity is a key determinant of the activity and pharmacokinetics of biologically active compounds, and the octanol–water partition coefficient (P) and logarithm value (LogP) are widely used hydrophobicity parameters. The LogP values of the synthesized compounds were determined using HPLC [45, 46]. Table 1 summarizes the experimentally determined LogP values and calculated values. […] From the viewpoint of the phosphine structure, an increase in the number of carbon atoms increased hydrophobicity in a predictable manner.
The 1-octanol/water partition coefficient P was determined using HPLC based on the OECD Guideline for Testing Chemicals. A COSMOSIL Packed Column 5C18-MS-II (5 μm, 150 mm × 4.6 mm id, Nacalai Tesque, Inc., Kyoto, Japan) was fitted on an HPLC instrument (Multiwavelength Detector, MD-2010 Plus. JASCO, Tokyo, Japan) equipped with a pump (PU-2080, JASCO) and an oven (SSC-2120, Senshu Scientific Co., Ltd., Tokyo, Japan). The injection volume was 20 µL; the mobile phase was methanol–water 75% (v/v); and the flow rate was 1.0 mL/min in all cases. Compounds were detected by measuring the UV absorption at 240 nm. The temperature of the column was kept at 40.0 (± 0.1) °C during the measurement. The measurement was performed in triplicate, and the mean value was calculated. The dead time t0 was measured with thiourea as the unretained compound, and the capacity factor k was calculated using the equation logk = log (tr − t0/t0), where tr represents the retention time of the compound. A calibration graph was determined experimentally using reference compounds (4-methylphenol, 4-chlorophenol, 4-phenylphenol, diphenylether, fluoranthene, and dichlorodiphenyltrichloroethane) with known logP values. The LogP values of phosphine–boranes were calculated based on a calibration graph (LogP = 2.6269 logkw + 3.059, R^2 = 0.9915).

[2] = target: T1, progesterone receptor (PR) (Homo sapiens, UniProt P06401); assay: T47D alkaline phosphatase assay, PR antagonistic activity in the presence of 1 nM P4; type: cell-based; settings: T47D cells, 1.0 nM P4, 48 h; mean ± SD from three independent experiments
T1 construct: alkaline phosphatase assay with the T47D human breast cancer cell line; endogenous in cells; host or cells: T47D
T1 sequence (P06401 1-933): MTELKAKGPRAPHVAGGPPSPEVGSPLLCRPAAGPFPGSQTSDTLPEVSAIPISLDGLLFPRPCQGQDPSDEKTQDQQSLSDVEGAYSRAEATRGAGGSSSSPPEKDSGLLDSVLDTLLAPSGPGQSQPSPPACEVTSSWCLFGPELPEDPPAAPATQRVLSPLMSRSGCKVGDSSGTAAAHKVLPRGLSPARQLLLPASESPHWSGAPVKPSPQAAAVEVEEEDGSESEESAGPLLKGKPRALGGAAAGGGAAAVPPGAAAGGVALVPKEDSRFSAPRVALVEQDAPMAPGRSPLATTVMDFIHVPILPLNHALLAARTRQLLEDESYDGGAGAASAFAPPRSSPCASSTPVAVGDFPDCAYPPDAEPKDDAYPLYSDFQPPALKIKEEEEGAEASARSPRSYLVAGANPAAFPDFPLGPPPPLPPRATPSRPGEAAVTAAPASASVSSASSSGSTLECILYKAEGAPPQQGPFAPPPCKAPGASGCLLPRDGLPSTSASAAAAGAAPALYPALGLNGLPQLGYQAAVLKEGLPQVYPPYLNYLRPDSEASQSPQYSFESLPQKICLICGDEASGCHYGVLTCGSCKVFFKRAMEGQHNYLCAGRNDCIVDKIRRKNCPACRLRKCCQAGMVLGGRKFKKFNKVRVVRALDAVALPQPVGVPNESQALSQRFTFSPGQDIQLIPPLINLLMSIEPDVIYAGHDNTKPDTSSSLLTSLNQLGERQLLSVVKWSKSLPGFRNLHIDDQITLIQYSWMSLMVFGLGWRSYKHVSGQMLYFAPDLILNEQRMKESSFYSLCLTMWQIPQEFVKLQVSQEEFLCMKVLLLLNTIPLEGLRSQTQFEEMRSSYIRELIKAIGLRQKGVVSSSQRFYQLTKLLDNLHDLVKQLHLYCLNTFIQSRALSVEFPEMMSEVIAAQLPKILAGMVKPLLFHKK
Protocol: The PR agonistic and antagonistic activities of the synthesized phosphine–borane derivatives were evaluated using an alkaline phosphatase assay with the T47D human breast cancer cell line. […] The basal alkaline phosphatase activity was also not affected by the tested compounds alone. […] The PR antagonistic activities of the compounds were assessed in the presence of 1 nM of P4 (5). We also calculated the molecular volume of each compound to investigate the structure–activity relationship (SAR). Table 2 summarizes the PR antagonistic activity and calculated volumes of the synthesized compounds. […] We investigated the binding affinity of the compounds toward the PR ligand-binding domain (LBD) using a fluorescence polarization assay system. […] We also investigated the activity of compounds 28 and 34 toward the androgen receptor (AR) by means of cell-proliferation promoting/inhibitory activity toward androgen-dependent SC-3 cells. […].
T47D alkaline phosphatase assays were performed as previously described, with minor modifications. Briefly, the human breast cancer cell line T47D (HMS LINCS database Accession Numbers: 50541) was routinely cultivated in RPMI 1640 medium with 10% FBS at 37 °C in a 5% CO2 humidified incubator. The cells were plated in 96-well plates and incubated overnight in a 5% CO2 humidified incubator at 37 °C. The next day, the cells were treated with a fresh medium containing the test compound in the presence of 1 nM of progesterone and further incubated for 48 h. The medium was aspirated, and the cells were fixed with 100 μL of 1.8% formalin–PBS. The fixed cells were washed with PBS, and 100 μL of an assay buffer (1 mg/mL p-nitrophenol phosphate in diethanolamine water solution, pH 9.0) was added. The mixture was incubated at room temperature for 2 h under light-shielded conditions. The absorbance was measured at 405 nm using a DTX 880 Multimode Detector (Beckman Coulter, Brea, CA, USA). All data points were measured in triplicate, and IC50 values were calculated from three independent experiments.

chromatographic logP [1]: 7.5 | IC50 [2]: > 10 µM | melting point: 33.2 to 33.8 °C
SMILES: CCCC[P+]([BH2-]c1ccc(C(F)(F)F)cc1)(CCCC)CCCC [Compound 35, B-4-(Trifluoromethyl)phenyl Tri-n-butylphosphine–Borane]

Source: publication PMC11013038, “Design, Synthesis, and Evaluation of B-(Trifluoromethyl)phenyl Phosphine–Borane Derivatives as Novel Progesterone Receptor Antagonists” (Molecules, 2024)
